# Measured values as given in US20230309522A1, “ANIMAL MODEL, METHODS FOR MAKING AND USING THEREOF, AND COMPOSITION FOR TREATING ATAXIA” (priority 2022, published 2023).
# Marks after values point to notes of the source that are not given here.
# Experiments:
# Type in all cases: in vivo, mouse
# Clock = assay: Quantitative RT-PCR of brain regions, Clock mRNA
# Procedure: (§1) To prepare RNA by RT-PCR, mice were deeply anesthetized with isoflurane inhalation. […] Total RNA was extracted by TRIzol reagent-based procedure (Thermofisher scientific, USA) and quantified by NanoDrop 2000 spectrophotometer ([…], USA). The total RNA obtained (20 μg) was reverse-transcribed to synthesize complementary DNA (cDNA) using a first-strand cDNA synthesis kit (Takara. Japan). Quantitative assays were performed on each cDNA using the primers listed in Table 3 with SYBR® Premix Ex Taq™ (Takara, Japan) in the given cycling condition (95° C. for 30 seconds, 32 cycles of 95° C. for 5 seconds and 60° C. for 30 seconds), as provided by the manufacturer's instruction.
# C57BU6J mice [1] = assay: Elevated beam test on 3AP-induced ataxia mice
# Description: (§2) Four different behavior tests were used in the present disclosure: footprint, irregular ladder, rotarod and body balance (elevated beam) tests. These behavior tests have been widely used for detection of ataxia^40-42. Two different time durations were used to differentiate the peak and trough expressions of the Bmal1 gene. i.e., daytime described herein refers to seven hours later after light exposure (˜2 pm); nighttime described herein refers to four hours later after dim light ([…]). These behavior tests were carried out at daytime (˜2 pm) and nighttime (˜11 pm), given the differential expression of Bmal1 in cerebellum having the highest level at ˜2 pm and the lowest level at ˜11 pm.
# Elevated beam test: Every single slip was counted during the walking^43. Mice were requested to walk through a wall with a distance of 40 cm, a height of 16 cm and a width of 0.5 cm. All tests were conducted in a quiet environment without noise and bright light disturbance.
# C57BU6J mice [2] = assay: Determining the least concentration of 3AP for induction of ataxia-like behaviors: survival time
# Procedure: Six to seven-week-old C57BU6J and B6.129-Arnt1^tm1Bra/J (Bmal1 gene-deficient mice) male mice were used for all experiments described hereinafter. All experiments were performed on mice anesthetized by an intraperitoneal (i.p.) injection of 100 mg ketamine/kg and 20 mg xylazine/kg, based on their body weights.
# In this example, a chemically-induced ataxia animal model was established upon systematic application of 3AP^19,20. Besides systematic (i.e. intraperitoneal, i.p., injection), local injection [in cerebellum, coordinate (Bregma): −7.08, 0, −2.1] of 3AP in C57BU6J mice could also be used to generate the chemically-induced ataxia animal models^23-25. Initially, different concentrations of 3AP were applied for determining the least concentration of 3AP for life-long induction of ataxia-like behaviors (Table 1).
# C57BU6J mice [3] = assay: Rotarod test on 3AP-induced ataxia mice; settings: for motor learning, percentage change in rotarod performance: 3AP local; for rotarod-based motor behavior: 3AP-induced ataxia mice, FIG. 1C
# Description: as §2
# Rotarod test: It has been widely used in determining general motor skills. In brief, mice walked on the rotarod with a width of 5 cm, a height of 20 cm and a diameter of 3 cm of rolling rods. The total time for mice to sustain on the rotarod in increasing speeds at a unit of revolution per minute (rpm) was taken for a measurement of motor skills such as balance and gait functions. Motor learning was calculated as a percentage change in the performance (at a maximum speed) over 5 min, 10 min or 15 min blocks sequentially.
# Bmal1 = assay: Quantitative RT-PCR of brain regions, Bmal1 mRNA
# Procedure: as §1
# C57BU6J mice [4] = assay: Footprint test on 3AP-induced ataxia mice
# Description: as §2
# Footprint test: Three measurements were included: i) front paw distance; ii) hind paw distance; and iii) stride. The footprint behavior tool was custom-made to have a narrow, foot-printable glass plate with the length of 85 cm and the width of 5 cm. Each paw distance was measured with footsteps printed during the walking across the narrow road.
# Cry1 = assay: Quantitative RT-PCR of brain regions, Cry1 mRNA
# Procedure: as §1
# C57BU6J mice [5] = assay: Irregular ladder test on 3AP-induced ataxia mice
# Description: as §2
# Irregular ladder test: A mouse was requested to walk through an irregularly arranged ladder with a distance of 85 cm and a width of 5 cm. Every single slip during walk steps was counted as a failure of gait and balance measurement.
# Calbindin = assay: Immunohistochemistry of cerebellar tissue, relative calbindin intensity; settings: 3AP-injected mice, relative to WT 1.00, FIG. 3C
# Procedure: (§3) The cerebellar tissue was isolated from anesthetized mice (six weeks old) and fixed with paraformaldehyde in […] (Thermofisher scientific, USA) and overnight at 4° C. The cerebellar tissue was then dehydrated by being incubated with PBS containing 30% sucrose at 4° C. then embedded in optimal cutting temperature (OCT) medium (Thermofisher scientific, USA) and frozen by using dry ice. The frozen tissues were cut with a cryostat (Thermo HM525NX Cryostat with UV Disinfection, Thermofisher scientific, USA) at 20 µm thickness and slices were placed on glass slides (Thermofisher scientific, USA). For immunohistochemical analysis, cerebellar tissue specimens were washed with PBS for 30 min and blocked with 10% bovine serum albumin (Sigma-Aldrich, USA) in PBST for 30 min at room temperature and then incubated with respective primary antibodies (Calbindin [8 μg/mL]: Invitrogen, USA; Tyrosine Hydrolase [1:400]: Invitrogen. USA) for overnight at 4° C. The specimens were further incubated with secondary antibodies (1:1500, Invitrogen. USA) for overnight at 4° C. […] The DAPI intensity and primary antibody (Calbindin or Tyrosine Hydrolase) intensity were recorded. The relative primary antibody intensity was calculated based on the following formula: […]
# Tyrosine Hydrolase (TH) = assay: Immunohistochemistry of substantia nigra compacta, Tyrosine Hydrolase expression; settings: 3AP ataxia model vs wildtype, FIGS. 6A and 6B
# Procedure: as §3
# Per1 = assay: Quantitative RT-PCR of brain regions, Per1 mRNA
# Procedure: as §1
smiles,measurement,setting,value
"CC(=O)c1cccnc1 [3AP, 3-acetyl pyridine]","Relative level of mRNA, Clock","Clock; 25 mg 3AP, Cerebellum",0.83
same,"Relative level of mRNA, Clock","Clock; 25 mg 3AP, Inferior Olive",0.86
same,"Relative level of mRNA, Clock","Clock; 25 mg 3AP, Motor cortex",0.93
same,"Relative level of mRNA, Clock","Clock; 25 mg 3AP, Striatum",0.77
same,"Relative level of mRNA, Clock","Clock; 35 mg 3AP, Cerebellum",0.94
same,"Relative level of mRNA, Clock","Clock; 35 mg 3AP, Inferior Olive",0.59*
same,"Relative level of mRNA, Clock","Clock; 35 mg 3AP, Motor cortex",0.82
same,"Relative level of mRNA, Clock","Clock; 35 mg 3AP, Striatum",0.87
same,slips in the elevated beam test,"C57BU6J mice [1]; 3AP local injection in the cerebellum, FIG. 2B, WT 0.87",10.46±0.92
same,"number of slips, elevated beam","C57BU6J mice [1]; 3AP-induced ataxia mice, day, FIG. 1D, WT day 0.93",10.23±0.23
same,"number of slips, elevated beam","C57BU6J mice [1]; 3AP-induced ataxia mice, night, FIG. 1D, WT night 9.92",10.24±0.23
same,"number of slips, elevated beam","C57BU6J mice [1]; local 3AP-intoxicated mice without Bmal1 viral vector, FIG. 4H, wildtype 0.85",10.7±0.176
same,Survival time,"C57BU6J mice [2]; 0.05 mg/kg, stereotaxic local injection to the cerebellum",No ataxia
same,Survival time,"C57BU6J mice [2]; 0.1 mg/kg, stereotaxic local injection to the cerebellum",>120 h
same,Survival time,"C57BU6J mice [2]; 0.15 mg/kg, stereotaxic local injection to the cerebellum",No survive
same,Survival time,"C57BU6J mice [2]; 0.2 mg/kg, stereotaxic local injection to the cerebellum",No survive
same,Survival time,"C57BU6J mice [2]; 25 mg/kg, intraperitoneal systematic injection",No ataxia
same,Survival time,"C57BU6J mice [2]; 35 mg/kg, intraperitoneal systematic injection",>120 h
same,Survival time,"C57BU6J mice [2]; 45 mg/kg, intraperitoneal systematic injection",24 h
same,Survival time,"C57BU6J mice [2]; 50 mg/kg, intraperitoneal systematic injection",8 h
same,Survival time,"C57BU6J mice [2]; 65 mg/kg, intraperitoneal systematic injection",3 h
same,Survival time,"C57BU6J mice [2]; 70 mg/kg, intraperitoneal systematic injection",0.25 h
same,performance in the rotarod test,"C57BU6J mice [3]; 3AP local injection in the cerebellum, daytime, FIG. 2A, WT 29.32",14.32±1.02 rpm
same,"motor learning, percentage change in rotarod performance","C57BU6J mice [3]; training time 5 min, Wild Type 76.4",−4.8 ± 4.22%
same,"motor learning, percentage change in rotarod performance","C57BU6J mice [3]; training time 10 min, Wild Type 88.6",−4.1 ± 7.32%
same,"motor learning, percentage change in rotarod performance","C57BU6J mice [3]; training time 15 min, Wild Type 95.46",−4.5 ± 4.12%
same,rotarod-based motor behavior,"C57BU6J mice [3]; day, WT day 28.00",14.57±1.38 rpm
same,rotarod-based motor behavior,"C57BU6J mice [3]; night, WT night 17.25",15.22±0.78 rpm
same,rotarod performance,"C57BU6J mice [3]; local 3AP-intoxicated mice without Bmal1 viral vector, FIG. 4G, wildtype 30",14.2±0.130 rpm
same,"Relative level of mRNA, Bmal1","Bmal1; 25 mg 3AP, Cerebellum",0.82
same,"Relative level of mRNA, Bmal1","Bmal1; 25 mg 3AP, Inferior Olive",0.85
same,"Relative level of mRNA, Bmal1","Bmal1; 25 mg 3AP, Motor cortex",0.93
same,"Relative level of mRNA, Bmal1","Bmal1; 25 mg 3AP, Striatum",0.94
same,"Relative level of mRNA, Bmal1","Bmal1; 35 mg 3AP, Cerebellum, 0.00 = extremely low concentration or the absence of the gene tested",0.00***
same,"Relative level of mRNA, Bmal1","Bmal1; 35 mg 3AP, Inferior Olive, 0.00 = extremely low concentration or the absence of the gene tested",0.00***
same,"Relative level of mRNA, Bmal1","Bmal1; 35 mg 3AP, Motor cortex, 0.00 = extremely low concentration or the absence of the gene tested",0.00***
same,"Relative level of mRNA, Bmal1","Bmal1; 35 mg 3AP, Striatum, 0.00 = extremely low concentration or the absence of the gene tested",0.00***
same,mRNA expression of Bmal1,"Bmal1; local 3AP-intoxicated mice vs wildtype control, daytime, FIG. 3B",far reduced
same,front paw distance,"C57BU6J mice [4]; 35 mg/kg 3AP-injected mice, FIG. 1A, WT 1.084",0.832±0.112 cm
same,hind paw distance,"C57BU6J mice [4]; 35 mg/kg 3AP-injected mice, FIG. 1A, WT 2.09",4.67±0.208 cm
same,stride,"C57BU6J mice [4]; 35 mg/kg 3AP-injected mice, FIG. 1A, WT 5.27",1.11±0.088 cm
same,hind paw distance,"C57BU6J mice [4]; local 3AP-intoxicated mice without Bmal1 viral vector, FIG. 4C, wildtype 2.13",4.28±0.314 cm
same,stride,"C57BU6J mice [4]; local 3AP-intoxicated mice without Bmal1 viral vector, FIG. 4D, wildtype 5.02",1.10±0.124 cm
same,front paw distance,"C57BU6J mice [4]; local 3AP-intoxicated mice without Bmal1 viral vector, FIG. 4E, wildtype 1.12",1.10±0.053 cm
same,"Relative level of mRNA, Cry1","Cry1; 25 mg 3AP, Cerebellum",0.82
same,"Relative level of mRNA, Cry1","Cry1; 25 mg 3AP, Inferior Olive",0.74
same,"Relative level of mRNA, Cry1","Cry1; 25 mg 3AP, Motor cortex",0.87
same,"Relative level of mRNA, Cry1","Cry1; 25 mg 3AP, Striatum",0.91
same,"Relative level of mRNA, Cry1","Cry1; 35 mg 3AP, Cerebellum",0.66
same,"Relative level of mRNA, Cry1","Cry1; 35 mg 3AP, Inferior Olive",0.70
same,"Relative level of mRNA, Cry1","Cry1; 35 mg 3AP, Motor cortex",0.68
same,"Relative level of mRNA, Cry1","Cry1; 35 mg 3AP, Striatum",0.89
same,"number of slips, irregular ladder","C57BU6J mice [5]; 3AP-induced ataxia mice, FIG. 1B, WT 1.61",8.92±0.178
same,"number of slips, irregular ladder","C57BU6J mice [5]; local 3AP-intoxicated mice without Bmal1 viral vector, FIG. 4F, wildtype 0.87",11.2±0.075
same,expression of calbindin in the Purkinje cell layer (relative intensity),Calbindin,0.123±0.052
same,Tyrosine Hydrolase (TH) expression in substantia nigra compacta (SNc),Tyrosine Hydrolase (TH),similarly expressed
same,"Relative level of mRNA, Per1","Per1; 25 mg 3AP, Cerebellum",0.81
same,"Relative level of mRNA, Per1","Per1; 25 mg 3AP, Inferior Olive",0.88
same,"Relative level of mRNA, Per1","Per1; 25 mg 3AP, Motor cortex",0.87
same,"Relative level of mRNA, Per1","Per1; 25 mg 3AP, Striatum",0.76
same,"Relative level of mRNA, Per1","Per1; 35 mg 3AP, Cerebellum",0.77
same,"Relative level of mRNA, Per1","Per1; 35 mg 3AP, Inferior Olive",0.90
same,"Relative level of mRNA, Per1","Per1; 35 mg 3AP, Motor cortex",0.87
same,"Relative level of mRNA, Per1","Per1; 35 mg 3AP, Striatum",0.86
